Laboratory results taken from paper PMC12056667 (Chemical Science, 2025).
Read-outs that look alike come from different tables or passages of the source.

Experiments:
Tet(X4) = Tet(X4) (Escherichia coli, UniProt A0A3T0V9Y5); assay: FP competitive displacement of probe 6; type: binding; conditions: for IC50: IC50app, 25 nM 6, 40 nM Tet(X4), 5 mM MgCl2, 1 μM FAD, 100 mM Tris pH 7.0, 0.01% Triton X-100
How it was run: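 FP displacement of probe 6 (added as 50 nM solution) from Tet(X4) (2× mix: 80 nM enzyme, 2 μM FAD, 10 mM MgCl2), 30 min at ambient temperature. Dose-response used 3-fold, 10-point DMSO series (top 5 or 0.5 mM stock). IC50^app came from a Hill fit of control-normalised response. Library screening used 10 μM compound, 0.1% DMSO, […].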

[1] = system: E. coli TOP10 containing plasmid pBAD-TOPO-Tet(X4); assay: Broth microdilution MIC and checkerboard assay; type: cell-based, Escherichia coli; conditions: for MIC: Escherichia coli; for Tet(X) inhibitor MIC: alone; for reduction of the tigecycline MIC: at high concentrations of inhibitor; for Combination (antibiotic/inhibitor) MIC: inhibitor: inhibitor in combination with tigecycline; for Combination (antibiotic/inhibitor) MIC: inhibitor / Combination (antibiotic/inhibitor) MIC: antibiotic / Combination (Antibiotic/Inhibitor) MICs: antibiotic / Combination (Antibiotic/Inhibitor) MICs: inhibitor: lowest FICI; for Combination (antibiotic/inhibitor) MIC: antibiotic: tigecycline in combination with the inhibitor
How it was run: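 E. coli TOP10 with pBAD-TOPO-Tet(X4), […], tested by CLSI broth microdilution in CAMHB, ~1.5 × 10^6 cfu mL^−1 inoculum, 37 °C, 18 h. Checkerboard of seven 2-fold inhibitor dilutions × ten dilutions; growth read visually ± resazurin; FICI = FICA + FICB.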

[2] = system: Acinetobacter spp. NT3-1 – tet(X3); assay: microbe, parasite or virus in culture; type: cell-based; conditions: for MIC: Acinetobacter, read-out: Tet(X) Inhibitor MIC, alone; for Combination (Antibiotic/Inhibitor) MICs: inhibitor / Combination (Antibiotic/Inhibitor) MICs: antibiotic: lowest FICI
How it was run: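 Checkerboards in CAMHB crossed seven 2-fold inhibitor dilutions with ten 2-fold tigecycline dilutions, inoculum about 1.5 × 10^6 cfu mL^−1 stock, 37 °C for 18 h, growth read visually with or without resazurin. FICI = FICA + FICB, with synergy <0.5, […] and antagonism >4.0. Off-scale MICs were set at the borderline value.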

[3] = system: tigecycline resistant Salmonella, E. coli, Acinetobacter and Proteus isolates containing tet(X) genes; assay: Checkerboard assays across the panel of isolates; type: cell-based; conditions: against all of the strains tested
Experimental: MIC tests and checkerboard assays were performed in U-bottom, 96-well microtiter plates using a modified broth microdilution protocol following CLSI guidelines. Cation-adjusted Mueller-Hinton Broth (CAMHB) was prepared fresh on the day of testing.[74] In brief, assays were set up in a total volume of 100 μL per well and titrations comprised seven 2-fold dilutions of inhibitors and ten 2-fold dilutions of tigecycline in CAMHB. Bacterial colonies were selected from an overnight culture on MHA plates (supplemented with 0.2%w/vL-arabinose for E. coli TOP10 containing pBAD-TOPO-Tet(X4)) and were suspended in 0.9% saline solution to achieve a 0.5 McFarland standard. A 100 μL aliquot of this suspension was then diluted into 9.9 mL of CAMHB to yield approximately 1.5 × 10^6 cfu mL^−1. 50 μL of the suspension was then added to each well of a microtiter plates. Plates were incubated at 37 °C for 18 h. At least 2 replicates were conducted for each combination. E. coli TOP10 + pBAD-TOPO-Tet(X4) cells were grown in the absence and presence of 0.2%w/vL-arabinose. […] As a measure of synergy, fractional inhibitory concentration index (FICI) was calculated as FICA + FICB, where FICA and FICB are the MICcombination/MICalone for each agent, respectively.[76] […] In cases where the MIC exceeded or was below the measured range, the borderline value was taken to calculate the FIC index.

[4] = read-out: Tet(X) Inhibitor MIC, alone, without L-arabinose induction
[5] = induced with 0.2%w/v L-arabinose
[6] = with tigecycline, 0.2%w/v L-arabinose
[7] = with tigecycline, without L-arabinose
[8] = inhibitor in combination with tigecycline
[9] = tigecycline in combination with the inhibitor
[10] = read-out: Tet(X) inhibitor MIC, alone, induced with 0.2%w/v L-arabinose
[11] = with doxycycline, 0.2%w/v L-arabinose
[12] = with doxycycline, no L-arabinose
[13] = with tetracycline, 0.2%w/v L-arabinose
[14] = with tetracycline, no L-arabinose

## CN1CCN(CCCN2c3ccccc3Sc3ccc(C(F)(F)F)cc32)CC1 [Trifluoperazine]
Tet(X4); Tet(X4) (Polarization)
  IC50: 55.6 ± 14.2 µM
[1]; [4]
  MIC: 64 µg/mL
[1]; [5]
  Tet(X) inhibitor MIC: 64 µg/mL
[1]; induced with 0.2%w/v L-arabinose, listed as trifluoperazine
  Tet(X) inhibitor MIC: 16 to 64 µg/mL
[1]; 0.2%w/v L-arabinose
  reduction of the tigecycline MIC: 2–4 fold
  Combination (antibiotic/inhibitor) MIC: inhibitor: 8 µg/mL
  Combination (antibiotic/inhibitor) MIC: antibiotic: 2 µg/mL
[1]; without L-arabinose
  Combination (antibiotic/inhibitor) MIC: inhibitor: 32 µg/mL
  Combination (antibiotic/inhibitor) MIC: antibiotic: 0.13 µg/mL
[1]; [6]
  FICI: 0.6
  Outcome: Indifferent (indifferent (0.5–4.0))
[1]; with tigecycline, 0.2%w/v L-arabinose, listed as trifluoperazine
  FICI: 0.5-1
[1]; [7]
  FICI: 1
  Outcome: indifferent (indifferent (0.5-4.0))
[2]; Acinetobacter spp. NT3-1
  MIC: 16 µg/mL
[2]; [8]
  Combination (Antibiotic/Inhibitor) MICs: inhibitor: 16 µg/mL
[2]; [9]
  Combination (Antibiotic/Inhibitor) MICs: antibiotic: 4 µg/mL
[2]; with tigecycline
  FICI: 2
  Outcome: indifferent (indifferent (0.5-4.0))

## O=C(c1ccc(OCCN2CCCCC2)cc1)c1c(-c2ccc(O)cc2)sc2cc(O)ccc12 [Raloxifene]
Tet(X4); Tet(X4) (Polarization)
  IC50: 19.8 ± 5.4 µM
[1]; [4]
  MIC: > 128 µg/mL
[1]; [10]
  MIC: > 128 µg/mL
[1]; 0.2%w/v L-arabinose
  Combination (antibiotic/inhibitor) MIC: inhibitor: 128 µg/mL
  Combination (antibiotic/inhibitor) MIC: antibiotic: 0.5 µg/mL
[1]; without L-arabinose
  Combination (antibiotic/inhibitor) MIC: inhibitor: > 128 µg/mL
  Combination (antibiotic/inhibitor) MIC: antibiotic: 0.25 µg/mL
[1]; [6]
  FICI: 1.1
  Outcome: Indifferent (indifferent (0.5–4.0))
[1]; [7]
  FICI: 2
  Outcome: indifferent (indifferent (0.5-4.0))
[2]; Acinetobacter spp. NT3-1
  MIC: 4 µg/mL
[2]; [8]
  Combination (Antibiotic/Inhibitor) MICs: inhibitor: 2 µg/mL
[2]; [9]
  Combination (Antibiotic/Inhibitor) MICs: antibiotic: 2 µg/mL
[2]; with tigecycline
  FICI: 1
  Outcome: indifferent (indifferent (0.5-4.0))

## [H]/N=C(/NCCCCC)N/N=C/c1c[nH]c2ccc(OC)cc12 [Tegaserod]
Tet(X4); Tet(X4) (Polarization)
  IC50: 43.2 ± 2.2 µM
[1]; read-out: Tet(X) Inhibitor MIC, alone, 0.2%w/v L-arabinose (Table S7)
  MIC: 16 µg/mL
[1]; [4]
  MIC: 16 µg/mL
[1]; [10]
  MIC: 16 to 64 µg/mL
[1]; [5]
  Tet(X) inhibitor MIC: 16 µg/mL
[1]; 0.2%w/v L-arabinose
  reduction of the tigecycline MIC: 2–4 fold
  Combination (antibiotic/inhibitor) MIC: inhibitor: 8 µg/mL
  Combination (antibiotic/inhibitor) MIC: antibiotic: 1 µg/mL
[1]; doxycycline with tegaserod, 0.2%w/v L-arabinose
  Combination (Antibiotic/Inhibitor) MICs: antibiotic: 16 µg/mL
[1]; doxycycline with tegaserod, no L-arabinose
  Combination (Antibiotic/Inhibitor) MICs: antibiotic: 8 µg/mL
[1]; without L-arabinose
  Combination (antibiotic/inhibitor) MIC: inhibitor: 16 µg/mL
  Combination (antibiotic/inhibitor) MIC: antibiotic: 0.25 µg/mL
[1]; tegaserod with doxycycline, 0.2%w/v L-arabinose
  Combination (Antibiotic/Inhibitor) MICs: inhibitor: 4 µg/mL
[1]; tegaserod with doxycycline, no L-arabinose
  Combination (Antibiotic/Inhibitor) MICs: inhibitor: 0.5 µg/mL
[1]; tegaserod with tetracycline, 0.2%w/v L-arabinose
  Combination (Antibiotic/Inhibitor) MICs: inhibitor: 8 µg/mL
[1]; tegaserod with tetracycline, no L-arabinose
  Combination (Antibiotic/Inhibitor) MICs: inhibitor: 4 µg/mL
[1]; tetracycline with tegaserod, 0.2%w/v L-arabinose
  Combination (Antibiotic/Inhibitor) MICs: antibiotic: 64 µg/mL
[1]; tetracycline with tegaserod, no L-arabinose
  Combination (Antibiotic/Inhibitor) MICs: antibiotic: 16 µg/mL
[1]; [11]
  FICI: 0.8
  Outcome: indifferent (indifferent (0.5-4.0))
[1]; [12]
  FICI: 1.0
  Outcome: indifferent (indifferent (0.5-4.0))
[1]; [13]
  FICI: 1.0
  Outcome: indifferent (indifferent (0.5-4.0))
[1]; [14]
  FICI: 2.0
  Outcome: indifferent (indifferent (0.5-4.0))
[1]; [6]
  FICI: 0.8
  Outcome: Indifferent (indifferent (0.5–4.0))
[1]; with tigecycline, 0.2%w/v L-arabinose, listed as tegaserod
  FICI: 0.5-1
[1]; [7]
  FICI: 2
  Outcome: indifferent (indifferent (0.5-4.0))
[2]; Acinetobacter spp. NT3-1
  MIC: 4 µg/mL
[2]; alone, Acinetobacter spp. NT3-1
  Tet(X) inhibitor MIC: 8 µg/mL
[2]; doxycycline with tegaserod
  Combination (Antibiotic/Inhibitor) MICs: antibiotic: 4 µg/mL
[2]; [8]
  Combination (Antibiotic/Inhibitor) MICs: inhibitor: 2 µg/mL
[2]; tegaserod with doxycycline
  Combination (Antibiotic/Inhibitor) MICs: inhibitor: 4 µg/mL
[2]; tegaserod with tetracycline
  Combination (Antibiotic/Inhibitor) MICs: inhibitor: 4 µg/mL
[2]; tetracycline with tegaserod
  Combination (Antibiotic/Inhibitor) MICs: antibiotic: 16 µg/mL
[2]; [9]
  Combination (Antibiotic/Inhibitor) MICs: antibiotic: 0.5 µg/mL
[2]; with doxycycline
  FICI: 1.0
  Outcome: indifferent (indifferent (0.5-4.0))
[2]; with tetracycline
  FICI: 0.8
  Outcome: indifferent (indifferent (0.5-4.0))
[2]; with tigecycline
  FICI: 0.6
  Outcome: indifferent (indifferent (0.5-4.0))
[3]
  reduction of the tigecycline MIC in combination: 2–8 fold

## Cc1c2c(c(O)c3c(O)cccc13)C(=O)[C@]1(O)C(=O)C(C(N)=O)=C(O)[C@@H](N(C)C)[C@@H]1C2 [Anhydrotetracycline]
Tet(X4); FP assay
  IC50: 0.0268 ± 0.0053 µM
Tet(X4); up to a maximum concentration of 100 μM
  displacement of probe 6 / competitive binding (in words): clear dose-dependent displacement
[1]; [4]
  MIC: 8 µg/mL
[1]; [10]
  MIC: 8 µg/mL
[1]; 0.2%w/v L-arabinose
  Combination (antibiotic/inhibitor) MIC: inhibitor: 2 µg/mL
  Combination (antibiotic/inhibitor) MIC: antibiotic: 0.5 µg/mL
[1]; without L-arabinose
  Combination (antibiotic/inhibitor) MIC: inhibitor: 8 µg/mL
  Combination (antibiotic/inhibitor) MIC: antibiotic: 0.25 µg/mL
[1]; [6]
  FICI: 0.4
  Outcome: Synergy (synergy (≤0.5))
[1]; [7]
  FICI: 2
  Outcome: indifferent (indifferent (0.5-4.0))
[2]; Acinetobacter spp. NT3-1
  MIC: 2 µg/mL
[2]; [8]
  Combination (Antibiotic/Inhibitor) MICs: inhibitor: 0.25 µg/mL
[2]; [9]
  Combination (Antibiotic/Inhibitor) MICs: antibiotic: 0.5 µg/mL
[2]; with tigecycline
  FICI: 0.3
  Outcome: synergy (synergy (< 0.5))
